These results are taken from EP4656640A1, “IRAK4 DEGRADER AND USE THEREOF” (Shanghai Qilu Pharmaceutical Research and Development …, priority 2023, dated 2024).

Data set [1] can be described thus: Dog pharmacokinetics, oral gavage (Experiment 3). Format: in vivo. The settings on record: Beagle dogs, oral gavage 2.5 mg/kg, plasma. The procedure: Healthy Beagle dogs, male, weighing about 8-10 kg, 3 animals per group.
The animals were not fasted and had free access to water.
Venous blood (0.5-0.8 mL) was collected at 15 minutes, 30 minutes, 1 hour, 2 hours, 4 hours, 8 hours, and 24 hours after oral gavage administration, placed in K2EDTA tubes, and centrifuged at 4°C to separate plasma. The concentration of the compound in plasma was determined by liquid chromatography-tandem mass spectrometry.
The main pharmacokinetic parameters were calculated using WinNonlin. […] Table 8. Pharmacokinetic parameters of some compounds of the present disclosure administered orally to dogs

Data set [2] can be described thus: Mouse pharmacokinetics, oral (Experiment 2). The settings on record: mice, PO 100 mg/kg, free access to food, plasma. Format: in vivo, C57BL/6 mice. The method, then: Two male C57BL/6 mice were allowed free access to food and water. The dose for PO administration was 100 mg/kg, with an administration volume of 10 mL/kg.
After administration, blood samples (0.025 mL) were collected from the mice via venipuncture at 0.083, 0.25, 0.5, 1, 2, 4, 8, and 24 hours. The samples were placed in EDTA-K2 tubes and centrifuged at 2000 g for 5 minutes at 4°C. The plasma was separated and stored at -70°C.
• 1) 5 µL of plasma sample was added to 100 µL of acetonitrile for precipitation. After mixing, the mixture was centrifuged at 5800 rmp for 10 minutes. • 2) The processed supernatant solution was taken for LCMS/MS analysis to determine the concentration of the test compound.
• LC-MS/MS instrument: LCMS/MS-45 (Triple Quad 6500+) • Chromatographic column: Waters BEH C18 (2.1 × 50 mm, 1.7 µm) • Mobile phase: Solution A was H2O-0.025% FA-1 mM NH4OAc, and Solution B was MeOH-0.025% FA-1 mM NH4OAc. • Flow rate: 0.6 mL/min • Elution time: Gradient elution for 0-2.5 minutes.
The main pharmacokinetic parameters were calculated using WinNonlin 8.2. […] Table 7. Pharmacokinetic parameters of some compounds of the present disclosure administered orally to mice

For data set [3] the following is noted: mice, 8 hours after last administration.
Protocol: Experimental animals: SPF-grade male C57BL/6J mice aged 6-8 weeks.
Preparation of compound: 10% DMSO + 50% PEG400 + 40% sterile water for injection. The compound was dissolved in DMSO, followed by the addition of PEG400 and sterile water for injection, and the solution was adjusted to clarity with 6N hydrochloric acid.
Compound administration and IL-33 inflammatory induction: The mice were randomly grouped according to body weight and orally administered with the compound at final doses of 15 mg/kg, 50 mg/kg, and 150 mg/kg, twice daily. At 4 hours after the last administration of the compound, the mice were intraperitoneally injected with 1 µg/100 µL PBS of IL-33 for inflammatory induction.
Termination, sample collection, and data: Plasma, peritoneal lavage fluid, and spleen were collected for subsequent sample index detection.
The experiment was terminated 8 hours after the last administration. The mice were anesthetized, and cardiac blood was collected. The blood samples were anticoagulated with EDTA-K2, centrifuged at 3500 rpm for 15 minutes, and the upper plasma was collected.
In the next data set the test system is inflammatory factors. Put plainly: Inflammatory factors in plasma and peritoneal lavage fluid, IL-33-induced acute inflammation in mice (ELISA). Particulars: FIG. 1. Type of data set: in vivo, C57BL/6J mice. The procedure:
IL-33, a member of the IL-1 cytokine family, is the ligand for IL-1 receptor-like 1 or ST2. […] The effect of the compounds on inflammation in the IL-1R signaling pathway was investigated using an acute inflammatory model in mice induced by intraperitoneal injection of IL-33.
Preparation of IL-33 inducer: The mouse recombinant IL-33 powder was prepared as a 1 µg/µL stock solution. When using, 40 µL of the 1 µg/µL IL-33 solution was added to 3960 µL of PBS, mixed well by inversion, to obtain 4 mL of IL-33 solution with a concentration of 1 µg/100 µL, which was prepared freshly before use.
For orientation: ELISA stands for enzyme-linked immunosorbent assay.

The target of a further data set is T1, IRAK4 (Mus musculus, UniProt Q8R4K2).
T1 sequence (Q8R4K2 1-459): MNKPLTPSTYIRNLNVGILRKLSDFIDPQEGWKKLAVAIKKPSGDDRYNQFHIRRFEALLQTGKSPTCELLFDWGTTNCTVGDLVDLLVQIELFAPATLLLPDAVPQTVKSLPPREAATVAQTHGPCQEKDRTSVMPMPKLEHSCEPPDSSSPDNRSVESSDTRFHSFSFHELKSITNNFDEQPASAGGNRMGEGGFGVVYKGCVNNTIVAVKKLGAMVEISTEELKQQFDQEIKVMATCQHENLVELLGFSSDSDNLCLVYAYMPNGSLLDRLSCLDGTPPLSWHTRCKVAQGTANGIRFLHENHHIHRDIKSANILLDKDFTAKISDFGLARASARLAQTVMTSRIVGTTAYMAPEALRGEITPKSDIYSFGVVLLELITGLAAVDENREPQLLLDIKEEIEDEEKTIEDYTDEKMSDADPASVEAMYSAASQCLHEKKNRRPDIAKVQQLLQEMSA
Put plainly: In vivo degradation of IRAK4 in mouse spleen, IL-33 model (LC-MS). Further details: species or system C57BL/6J mice. Particulars: Example 22 at 50 mpk, comparable drug concentrations in the spleen, FIG. 2.

Data set [4] in a line: Mouse pharmacokinetics, oral (Experiment 1). Format: in vivo, C57BL/6 mice. The settings on record: mice, PO 100 mg/kg, fasted overnight, plasma. The procedure:
C57BL/6 mice were used as test animals to study the pharmacokinetic behavior of the compounds of the present disclosure in mouse plasma after oral administration at a dose of 100 mg/kg.
C57BL/6, male, transferred from the animal repository of the laboratory institution (999M-018).
Three male C57BL/6 mice were fasted overnight (10-14 hours) with free access to water one day before administration. The mice were fed 4 hours after administration. The dose for PO administration was 100 mg/kg, with an administration volume of 20 mL/kg.
After administration, blood samples (0.03 mL) were collected from the mice via venipuncture at 0.083, 0.25, 0.5, 1, 2, 4, 8, and 24 hours. The samples were placed in EDTA-K2 tubes and centrifuged at 6800 rpm for 5 minutes at 2-8°C. The plasma was separated and stored at -80°C.
• 1) 10 µL of plasma sample was added to 200 µL of methanol for precipitation. After mixing, the mixture was centrifuged at 18000 g for 10 minutes. • 2) The processed supernatant solution was taken for LC/MS/MS analysis to determine the concentration of the test compound.
• Liquid phase conditions: Shimadzu LC-30AD pump • Mass spectrometry conditions: AB Sciex API 5500 mass spectrometer • Chromatographic column: Phenomenex Kinetex 2.6 µm C18 50 3.0 mm • Mobile phase: Solution A was 0.1% formic acid in water, and solution B was 0.1% formic acid in acetonitrile • Flow rate: 0.6 mL/min • Elution time: Gradient elution for 0-1.6 minutes.
The main pharmacokinetic parameters were calculated using WinNonlin 8.0.

Each structure is given as a SMILES string. Read-outs that look alike come from different tables or passages of the source.

As a reminder, the AUC(0-t) is the area under the concentration-time curve up to a stated or last time point. A lower AUC(0-t) goes with low exposure. As a reminder, the Cmax is the peak of the concentration-time curve. As a reminder, the MRT inf is a mean duration of stay, worked out from the concentration-time curve. A word on the half-life: it is the time in which the quantity being followed falls by half. Higher therefore signals slow decline. The Tmax is the time from dosing to the highest level. By AUC(0-inf) is commonly meant the area under the concentration-time curve extrapolated to infinity. High values mean high exposure, low ones low exposure.

In data set [1], `Cn1c(=O)n(C2CCC(=O)NC2=O)c2cccc(C#CCOC34CCC(CN5CCC6(CC5)CC(n5cc(NC(=O)c7cnn8ccc(N9C[C@H]%10C[C@@H]9CO%10)nc78)c(C(F)F)n5)C6)(CC3)CC4)c21` (some centres unmarked) [Example 52] showed an area under the curve AUC(0-t) at 24 h of 1160 ng·h/mL, a Cmax of 78 ng/mL, an MRT inf of 20.2 h and a half-life of 804 min. In addition, in data set [2], the exposure AUC(0-t) at 24 h is 40100 ng·h/mL, the highest level (Cmax) was 2200 ng/mL and the Tmax is 8 h.

In the case of `Cn1c(=O)n(C2CCC(=O)NC2=O)c2cccc(C#CCCN3CCC4(CC3)CC(n3cc(NC(=O)c5cnn6ccc(N7C[C@H]8C[C@@H]7CO8)nc56)c(C(F)F)n3)C4)c21` (some centres unmarked) [Example 22], in data set [3] (PO 15 mpk twice daily), the “C8hr Plasma” value was determined as 54 ng/mL and the “C8hr Spleen” value is on record as 369 ng/mL. In data set [3] (PO 50 mpk twice daily), the “C8hr Plasma” value came out at 517 ng/mL and the “C8hr Spleen” value amounted to 6135 ng/mL. Besides, in data set [3] (PO 150 mpk twice daily), the “C8hr Plasma” value came to 1392 ng/mL and the “C8hr Spleen” value was found to be 16257 ng/mL. In data set [1], this compound had an AUC(0-t) at 24 h of 1190 ng·h/mL, a maximum concentration (Cmax) of 100 ng/mL, an MRT inf of 11.2 h and a half-life of 456 min. In addition, the “anti-inflammatory effect compared with KT474” value with inflammatory factors (at comparable drug concentrations in plasma) is on record as “superior”. For the same compound, the “inflammatory factors in mouse plasma and peritoneal lavage fluid” value with inflammatory factors (mice, PO 15, 50 and 150 mg/kg, IL-33 induction) was “concentration-dependent reduction”. For the same compound, the “degradation effect of IRAK4 in mouse spleen compared with KT-474 at 150 mpk” value on IRAK4 is recorded as 2-3 times. Moreover, in data set [4], the AUC(0-inf) was determined as 18400 ng·h/mL, the AUC(0-t) at 24 h worked out at 17600 ng·h/mL, the highest level (Cmax) was 1400 ng/mL and the mean residence time (MRT inf) was found to be 8 h. In addition, in data set [4], the time to peak (Tmax) worked out at 1.7 h and the half-life was 324 min.
